Laboratory results: ChEMBL document CHEMBL5728812, “Inhibitors of Plasma Kallikrein and uses thereof” (2021)

Target: Plasma kallikrein (Homo sapiens, UniProt P03952)
Experiment: Inhibitory Activity Assay: Plasma Kallikrein: The example compounds were evaluated for inhibition of the human activated kallikrein enzyme in two formats of an assay employing a fluorogenic peptide substrate. In one assay format, the concentrations of reagents were as follows: 20 mM Tris pH 7.5, 1 mM EDTA, 150 mM sodium chloride, 0.1% PEG-400, 0.1% Triton X-100, 500 pM activated kallikrein enzyme, 300 uM Pro-Phe-Arg-7-amido-4-methylcoumarin substrate. Prior to reaction initiation with substrate, enzyme and inhibitors were preincubated for 30 min at room temperature. After initiation with substrate, reactions were incubated for 10 min at room temperature and fluorescence emission at 460 nm from 380 nm excitation measured with a microplate reader. In another assay format, the concentrations of reagents were as follows: 20 mM Tris pH 7.5, 1 mM EDTA, 150 mM sodium chloride, 0.1% PEG-400, 0.1% Triton X-100, 5 pM activated kallikrein enzyme, 300 uM Pro-Phe-Arg-7-amido-4-methylcoumarin substrate. Prior to reaction initiation with substrate, enzyme and inhibitors were preincubated for 30 min at room temperature. After initiation with substrate, reactions were incubated for 18 hr at room temperature and fluorescence emission at 460 nm from 380 nm excitation measured with a microplate reader.

Sequence of Plasma kallikrein (P03952 20-390 limits assumed): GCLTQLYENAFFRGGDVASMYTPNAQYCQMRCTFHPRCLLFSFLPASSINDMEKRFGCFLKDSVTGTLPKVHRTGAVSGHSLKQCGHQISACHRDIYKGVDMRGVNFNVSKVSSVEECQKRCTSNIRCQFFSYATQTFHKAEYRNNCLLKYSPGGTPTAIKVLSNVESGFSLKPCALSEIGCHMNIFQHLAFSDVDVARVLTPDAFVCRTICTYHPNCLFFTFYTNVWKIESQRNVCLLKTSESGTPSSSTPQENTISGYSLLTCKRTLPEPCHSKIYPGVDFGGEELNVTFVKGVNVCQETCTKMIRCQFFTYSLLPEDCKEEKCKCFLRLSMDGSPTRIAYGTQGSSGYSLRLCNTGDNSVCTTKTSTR
Sequence of Plasma kallikrein (P03952 391-638 limits assumed): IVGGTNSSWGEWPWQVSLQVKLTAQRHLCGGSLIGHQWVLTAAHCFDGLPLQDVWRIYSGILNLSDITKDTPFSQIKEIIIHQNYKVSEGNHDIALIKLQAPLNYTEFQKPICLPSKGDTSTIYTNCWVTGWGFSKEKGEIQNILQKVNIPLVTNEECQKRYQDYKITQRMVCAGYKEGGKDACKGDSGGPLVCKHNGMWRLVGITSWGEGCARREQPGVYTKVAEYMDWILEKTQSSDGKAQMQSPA

CNC(=O)[C@H](CCCCNC(=N)N)NC(=O)c1csc([C@@H]2C[C@@H](N)CN2C(=O)c2ccc3cc(Cl)ccc3n2)n1 was tested, and the EC50 was < 100 nM.
